{"source": "ChEMBL document CHEMBL6182943", "about": "“Identification of 4'-Thiouridine as an Orally Available Antiviral Agent Targeting Both RdRp and NiRAN Functions of SARS-CoV-2 Nsp12” (J Med Chem, 2025)", "key": {"SARS-CoV-2 [1]": {"test_system": "SARS-CoV-2", "assay": "Antiviral activity against SARS-CoV-2 infected in african green monkey Vero cells assessed as reduction in number of spike-protein expressing cells at 30 uM pre-infected for 30 mins followed by compound addition and measured 48 hrs post-infection by DAPI staining based immunofluorescence analysis relative to control", "format": "functional, Severe acute respiratory syndrome coronavirus 2", "design": "scale not given: the % may be the effect or the level left", "settings": "time 47.5 hrs"}, "[2]": {"assay": "Cytotoxicity against African green monkey Vero cells assessed as reduction in cell viability incubated for 48 hrs by MTT assay", "format": "toxicity, cell-based", "settings": "chlorocebus sabaeus"}, "SARS-CoV-2 [3]": {"test_system": "SARS-CoV-2", "assay": "Antiviral activity against SARS-CoV-2 infected in African green monkey Vero cells assessed as reduction in viral N protein level measured after 1 day by Western blot analysis", "format": "functional, organism-based", "settings": "Severe acute respiratory syndrome coronavirus 2, dose 0.1-10 µM"}, "SARS-CoV-2 [4]": {"test_system": "SARS-CoV-2", "assay": "Antiviral activity against SARS-CoV-2 infected in African green monkey Vero cells assessed as reduction in viral N protein level at 1 to 10 uM measured after 1 day by Western blot analysis relative to control", "format": "functional, Severe acute respiratory syndrome coronavirus 2", "design": "scale not given: the % may be the effect or the level left", "settings": "dose 1-10 µM"}, "SARS-CoV-2 [5]": {"test_system": "SARS-CoV-2", "assay": "Antiviral activity against SARS-CoV-2 infected in African green monkey Vero cells assessed as reduction in viral RNA copy number at 0.1 to 10 uM measured after 1 day by qRT-PCR analysis", "format": "functional, organism-based", "settings": "Severe acute respiratory syndrome coronavirus 2, dose 0.1-10 µM"}, "[6]": {"assay": "Terminal half-life in male ICR mouse at 5 mg/kg, iv measured after 24 hrs by LC-MS/MS analysis", "format": "ADME, organism-based", "settings": "in vivo, read-out: beta t1/2 (converted)"}, "[7]": {"assay": "Clearance in male ICR mouse at 5 mg/kg, iv measured after 24 hrs by LC-MS/MS analysis", "format": "ADME, organism-based", "settings": "in vivo"}, "[8]": {"assay": "MRTlast in male ICR mouse at 5 mg/kg, iv measured after 24 hrs by LC-MS/MS analysis", "format": "ADME, organism-based", "settings": "in vivo"}, "[9]": {"assay": "Terminal half-life in male ICR mouse at 10 mg/kg, po measured after 24 hrs by LC-MS/MS analysis", "format": "ADME, organism-based", "settings": "in vivo, read-out: beta t1/2 (converted)"}, "[10]": {"assay": "AUClast in male ICR mouse at 10 mg/kg, po measured after 24 hrs by LC-MS/MS analysis", "format": "ADME, organism-based", "settings": "in vivo"}, "[11]": {"assay": "AUCinfinity in male ICR mouse at 10 mg/kg, po measured after 24 hrs by LC-MS/MS analysis", "format": "ADME, organism-based", "settings": "in vivo"}, "[12]": {"assay": "MRTlast in male ICR mouse at 10 mg/kg, po measured after 24 hrs by LC-MS/MS analysis", "format": "ADME, organism-based", "settings": "in vivo"}, "[13]": {"assay": "Oral bioavailability in male ICR mouse at 10 mg/kg measured after 24 hrs by LC-MS/MS analysis", "format": "ADME, organism-based", "settings": "in vivo"}, "SARS-CoV-2 [14]": {"test_system": "SARS-CoV-2", "assay": "Antiviral activity against SARS-CoV-2 infected in hACE2 expressing female B6.Cg-Tg(K18-ACE2)2Prlmn/J mouse model assessed as reduction in body weight loss at 50 mg/kg, po preadministered twice daily for 4 days at 8 hrs interval with four hours before and after viral challenge and measured 14 days post viral challenge", "format": "functional, organism-based", "settings": "Severe acute respiratory syndrome coronavirus 2, time 14.0 day"}, "SARS-CoV-2 [15]": {"test_system": "SARS-CoV-2", "assay": "Antiviral activity against SARS-CoV-2 infected in hACE2 expressing female B6.Cg-Tg(K18-ACE2)2Prlmn/J mouse model assessed as reduction in body weight loss at 100 mg/kg, po preadministered twice daily for 4 days at 8 hrs interval with four hours before and after viral challenge and measured 9 days post viral challenge", "format": "functional, organism-based", "settings": "Severe acute respiratory syndrome coronavirus 2, time 9.0 day"}, "SARS-CoV-2 [16]": {"test_system": "SARS-CoV-2", "assay": "Antiviral activity against SARS-CoV-2 infected in hACE2 expressing female B6.Cg-Tg(K18-ACE2)2Prlmn/J mouse model assessed as reduction in body weight loss at 100 mg/kg, po preadministered twice daily for 4 days at 8 hrs interval with four hours before and after viral challenge and measured 14 days post viral challenge", "format": "functional, organism-based", "settings": "Severe acute respiratory syndrome coronavirus 2, time 14.0 day"}, "SARS-CoV-2 [17]": {"test_system": "SARS-CoV-2", "assay": "Antiviral activity against SARS-CoV-2 Wuhan-like (hCoV-19/Korea/KCDC06/2020) infected in human Calu-3 cells assessed as reduction in number of spike-protein expressing cells pre-infected for 30 mins followed by compound addition and measured 48 hrs post-infection by DAPI staining based immunofluorescence analysis relative to control", "format": "functional, organism-based", "settings": "Severe acute respiratory syndrome coronavirus 2, Wuhan-like (hCoV-19/Korea/KCDC06/2020)"}, "SARS-CoV-2 [18]": {"test_system": "SARS-CoV-2", "assay": "Antiviral activity against SARS-CoV-2 Gamma (hCoV-19/Korea95637/KDCA/2021) infected in human Calu-3 cells assessed as reduction in number of spike-protein expressing cells pre-infected for 30 mins followed by compound addition and measured 48 hrs post-infection by DAPI staining based immunofluorescence analysis relative to control", "format": "functional, organism-based", "settings": "Severe acute respiratory syndrome coronavirus 2, Gamma (hCoV-19/Korea95637/KDCA/2021)"}, "SARS-CoV-2 [19]": {"test_system": "SARS-CoV-2", "assay": "Antiviral activity against SARS-CoV-2 Delta (hCoV-19/Korea/KDCA119861/2021) infected in human Calu-3 cells assessed as reduction in number of spike-protein expressing cells pre-infected for 30 mins followed by compound addition and measured 48 hrs post-infection by DAPI staining based immunofluorescence analysis relative to control", "format": "functional, organism-based", "settings": "Severe acute respiratory syndrome coronavirus 2, Delta (hCoV-19/Korea/KDCA119861/2021)"}, "SARS-CoV-2 [20]": {"test_system": "SARS-CoV-2", "assay": "Antiviral activity against SARS-CoV-2 Omicron (hCoV-19/Korea/KDCA447321/2021) infected in human Calu-3 cells assessed as reduction in number of spike-protein expressing cells pre-infected for 30 mins followed by compound addition and measured 48 hrs post-infection by DAPI staining based immunofluorescence analysis relative to control", "format": "functional, organism-based", "settings": "Severe acute respiratory syndrome coronavirus 2, Omicron (hCoV-19/Korea/KDCA447321/2021)"}, "[21]": {"assay": "Cytotoxicity against human Calu-3 cells assessed as reduction in cell viability incubated for 48 hrs by MTT assay", "format": "toxicity, cell-based"}, "[22]": {"assay": "Cytotoxicity against human Huh-7 cells assessed as reduction in cell viability by MTT-based cell viability assay", "format": "toxicity"}, "dengue virus type 2": {"test_system": "dengue virus type 2", "assay": "Antiviral activity against Dengue virus 2 infected in BHK-21 cells transfected with Renilla luciferase tagged viral subgenomic replicon incubated for 48 hrs by luciferase based assay", "format": "functional, organism-based", "settings": "BHK-21, 48 h"}, "[23]": {"assay": "Cytotoxicity against golden hamster BHK-21 cells assessed as reduction in cell viability by MTT assay", "format": "toxicity, cell-based, Mesocricetus auratus"}, "Influenza A virus (H1N1)": {"test_system": "Influenza A virus (H1N1)", "assay": "Antiviral activity against Influenza A virus A/Puerto Rico/8/34 (H1N1) infected in MDCK cells assessed as reduction in virus-induced cytopathic effect incubated for 3 days in presence of TPCK-treated trypsin by MTT assay", "format": "functional, organism-based", "settings": "72 h"}, "Influenza A virus": {"test_system": "Influenza A virus", "assay": "Antiviral activity against Influenza A virus A/Hong Kong/8/68 (H3N2) infected in MDCK cells assessed as reduction in virus-induced cytopathic effect incubated for 3 days in presence of TPCK-treated trypsin by MTT assay", "format": "functional, organism-based", "settings": "72 h"}, "Influenza B virus": {"test_system": "Influenza B virus", "assay": "Antiviral activity against Influenza B virus B/Lee/40 infected in MDCK cells assessed as reduction in virus-induced cytopathic effect incubated for 3 days in presence of TPCK-treated trypsin by MTT assay", "format": "functional, organism-based", "settings": "B/Lee/40, MDCK, 72 h"}, "[24]": {"assay": "Cytotoxicity against MDCK cells assessed as reduction in cell viability incubated for 3 days by MTT assay", "format": "toxicity, cell-based, Canis lupus familiaris", "settings": "dog, time 3 day"}, "Zaire ebolavirus": {"test_system": "Zaire ebolavirus", "assay": "Antiviral activity against Zaire Ebola virus infected in HEK293T cells transfected with viral replication protein and Renilla luciferase pre-infected for 4 hrs followed by compound addition and measured after 48 hrs by Dual-luciferase reporter assay", "format": "functional, organism-based", "settings": "HEK-293T"}, "[25]": {"assay": "Cytotoxicity against HEK293T cells assessed as reduction in cell viability measured after 48 hrs by MTT assay", "format": "toxicity, cell-based, HEK-293T", "settings": "human"}, "[26]": {"assay": "Cytotoxicity against human H1-HeLa cells assessed as reduction in cell viability incubated for 72 hrs", "format": "toxicity, cell-based"}}, "note": "pEC50: −log10 of the molar value. The source made the active and inactive calls. The calls are words filed in the database; no cut-off is given here.", "data": [{"smiles": "O=c1ccn([C@@H]2S[C@H](CO)[C@@H](O)[C@H]2O)c(=O)[nH]1", "values": [{"measurement": "Activity", "setting": "SARS-CoV-2 [1]", "value": ">80", "unit": "%"}, {"measurement": "CC50 at 48 h", "setting": "[2]", "value": "> 100", "unit": "µM"}, {"measurement": "Activity", "setting": "SARS-CoV-2 [3]", "value": "Dose-dependent-effect"}, {"measurement": "Activity", "setting": "SARS-CoV-2 [4]", "value": 100, "unit": "%"}, {"measurement": "Activity", "setting": "SARS-CoV-2 [5]", "value": "Active"}, {"measurement": "half-life", "setting": "[6]", "value": 8.87, "unit": "h"}, {"measurement": "clearance", "setting": "[7]", "value": 4.17, "unit": "mL/min/kg"}, {"measurement": "MRT last at 24 h", "setting": "[8]", "value": 7.16, "unit": "h"}, {"measurement": "half-life", "setting": "[9]", "value": 8.2, "unit": "h"}, {"measurement": "AUC(0-t) at 24 h", "setting": "[10]", "value": 38000, "unit": "ng·h/mL"}, {"measurement": "AUC(0-inf)", "setting": "[11]", "value": 43600, "unit": "ng·h/mL"}, {"measurement": "MRT last at 24 h", "setting": "[12]", "value": 6.84, "unit": "h"}, {"measurement": "bioavailability", "setting": "[13]", "value": 109, "unit": "%"}, {"measurement": "Activity", "setting": "SARS-CoV-2 [14]", "value": "inactive"}, {"measurement": "Activity", "setting": "SARS-CoV-2 [15]", "value": "Active"}, {"measurement": "Activity", "setting": "SARS-CoV-2 [16]", "value": "Active"}, {"measurement": "pEC50", "setting": "SARS-CoV-2 [17]", "value": 5.39}, {"measurement": "pEC50", "setting": "SARS-CoV-2 [18]", "value": 5.46}, {"measurement": "pEC50", "setting": "SARS-CoV-2 [19]", "value": 5.12}, {"measurement": "pEC50", "setting": "SARS-CoV-2 [20]", "value": 5.58}, {"measurement": "CC50 at 48 h", "setting": "[21]", "value": "> 100", "unit": "µM"}, {"measurement": "CC50", "setting": "[22]", "value": "> 100", "unit": "µM"}, {"measurement": "pEC50", "setting": "dengue virus type 2", "value": 4.38}, {"measurement": "CC50", "setting": "[23]", "value": 93.7, "unit": "µM"}, {"measurement": "pEC50", "setting": "Influenza A virus (H1N1)", "value": 4.87}, {"measurement": "pEC50", "setting": "Influenza A virus", "value": 4.82}, {"measurement": "pEC50", "setting": "Influenza B virus", "value": 4.69}, {"measurement": "CC50 at 72 h", "setting": "[24]", "value": "> 100", "unit": "µM"}, {"measurement": "pEC50", "setting": "Zaire ebolavirus", "value": 4.48}, {"measurement": "CC50 at 48 h", "setting": "[25]", "value": 81.1, "unit": "µM"}, {"measurement": "CC50 at 72 h", "setting": "[26]", "value": "> 100", "unit": "µM"}]}]}
